Source: patent publication US10653693B2, “PRMT5 inhibitors and uses thereof” (Epizyme, Inc., priority 2014, dated 2020)
pIC50: −log10 of the molar value. Where two headings read alike, the source gives them in different places.

Legend:
MiaPaca-2 cells = experiment: 2D-proliferation assay; format: cell-based; details: Homo sapiens
Description: (§1) Calculation of growth inhibitory concentrations (g IC50) at Days 4, 6 and 13 treated with Formula D. 2D-proliferation assays were also performed on pancreatic cell lines treated with Formula D. Treatment of both Miapaca-2 and Panc-1 cells with Formula D results in a decrease in cell proliferation, as shown in FIG. 19.

Panc-1 cells = experiment: 2D-proliferation assay; format: cell-based; details: Homo sapiens
Description: as §1

Miapaca-2 = experiment: Foci formation and cellular morphology; format: cell-based
Description: (§2) FIG. 18 illustrates the effect of foci formation and cellular morphology in pancreatic cancer cell lines (Miapaca-2, Panc-1). The effects of treatment with Formula D on pancreatic cancer cell morphology was also tested.

Panc-1 = experiment: Foci formation and cellular morphology; format: cell-based
Description: as §2

Z-138 = experiment: Long-term proliferation (LTP) assay; format: cell-based; details: Homo sapiens, Table 3, read-out: LTP IC50
Description: FIG. 4 illustrates a representative sample of a long-term proliferation assay performed in the mantle cell lymphoma cell line Z-138. Assays were performed in technical triplicates, reading cell viability over 14 days. Growth curves (top panel) were calculated in Excel. IC50 (bottom panel) and IC90 (not shown) values were calculated in GraphPad Prism using a non-linear regression analysis, fixing the top and bottom of the curves to 100 and 0%, respectively. The IC50 values in the Table are indicated in microM. [table]

Granta-519 = experiment: Long-term proliferation (LTP) assay; format: cell-based; details: Homo sapiens, Table 3, read-out: LTP IC50
Jeko-1 = experiment: Long-term proliferation (LTP) assay; format: cell-based; details: Homo sapiens, Table 3, read-out: LTP IC50
Maver-1 = experiment: Long-term proliferation (LTP) assay; format: cell-based; details: Homo sapiens, Maver1, Table 3, read-out: LTP IC50
Mino = experiment: Long-term proliferation (LTP) assay; format: cell-based; details: Homo sapiens, Table 3, read-out: LTP IC50
[1] = tested on: sDMA methylation in Granta-519 cells; experiment: sDMA western blot, 10 kDa band to total SmD3; format: cell-based; details: Homo sapiens, Table 3, read-out: sDMA Western IC50
Description: (§3) The measurement of the 10 kDa band was used to calculate the methylation IC50 values. […] Concentration-dependent decreases in the 10 kDa band were observed on day 4 in all cell lines tested with representative western blots shown for Z-138 and Maver-1 cell lines (FIG. 1). Levels of the 10 kDa band from the western blots were quantified by densitometry and ratios of 10 kDa band (postulated to be SmD3me2s) to total SmD3 were calculated to determine the IC50s (Table 2, n=1 for all samples).

[2] = tested on: sDMA methylation in Jeko-1 cells; experiment: sDMA western blot, 10 kDa band to total SmD3; format: cell-based; details: Homo sapiens, Table 3, read-out: sDMA Western IC50
Description: as §3

[3] = tested on: sDMA methylation in Maver-1 cells; experiment: sDMA western blot, 10 kDa band to total SmD3; format: cell-based; details: Homo sapiens, Maver1, Table 3, read-out: sDMA Western IC50
Description: as §3

[4] = tested on: sDMA methylation in Mino cells; experiment: sDMA western blot, 10 kDa band to total SmD3; format: cell-based; details: Homo sapiens, Table 3, read-out: sDMA Western IC50
Description: as §3

[5] = tested on: sDMA methylation in Z-138 cells; experiment: sDMA western blot, 10 kDa band to total SmD3; format: cell-based; details: Homo sapiens, Table 3, read-out: sDMA Western IC50
Description: as §3

Maver-1 cells = experiment: Annexin-V staining (apoptosis); format: cell-based, Human; details: after 4 days of treatment
Description: (§4) The mechanism of cell killing was evaluated in the MCL cell lines, Z-138 and Mayer-1. Cells were treated at various time points with 2 nM, 20 nM, and 200 nM of Formula B. Apoptosis was assessed by measuring the percentage of Annexin-V positive cells and the assay was performed in triplicate.

Z-138 cells = experiment: Annexin-V staining (apoptosis); format: cell-based, Human; details: 200 nM
Description: as §4

Z-138 xenograft model = experiment: 21 day mantle cell lymphoma xenograft study: TGI and tumor methyl mark; format: in vivo; details: Z-138 xenograft; all doses tested; day 21
Description: Data presented in this example were determined after analysis of 21 day samples of mantle cell lymphoma tumors. Cmin PK samples were taken prior to the last dose on day 21. Tumors were excised, weighed and processed for methyl mark. Methyl mark reduction was measured in tumor samples and is shown as percent of vehicle control (POC). […] Tumor growth inhibition was determined using tumor volume reduction at day 21 expressed as a percent of POC. In vivo inhibition curves were also generated and IC50 values determined. Plasma levels from each group are averaged from 5 animals. […] The average body weight loss (BWL) in all groups was <6%. All doses tested show >50% TGI. […] The average BWL in all groups was <4%. The average BWL in all groups was <8%, except in the 100 mg/kg does group were 4 animals exceeded BWL of 15%.

Maver-1 xenograft model = experiment: as above; format: in vivo; details: all doses tested, day 21
Description: (§5) Data presented in this example were determined after analysis of 21 day samples of mantle cell lymphoma tumors. Cmin PK samples were taken prior to the last dose on day 21. Tumors were excised, weighed and processed for methyl mark. Methyl mark reduction was measured in tumor samples and is shown as percent of vehicle control (POC). Both SYM11 and sDMA Elisa were used to measure methyl mark and the data shown is averaged from 10 animals. Tumor growth inhibition was determined using tumor volume reduction at day 21 expressed as a percent of POC. In vivo inhibition curves were also generated and IC50 values determined. Plasma levels from each group are averaged from 5 animals. […] The average body weight loss (BWL) in all groups was <6%. All doses tested show >50% TGI. […] The average BWL in all groups was <4%. The average BWL in all groups was <8%, except in the 100 mg/kg does group were 4 animals exceeded BWL of 15%.

[6] = Body weight loss in Z-138 xenograft study; format: in vivo
Description: as §5

For `O=C(COc1cccc2cccnc12)NC[C@@H](O)CN1CCc2ccccc2C1` [Formula D], the pIC50 (MiaPaca-2 cells; MIA PaCa-2, 96 h, Day 4, read-out: growth inhibitory concentration (gIC50)) was 6.46, the pIC50 (MiaPaca-2 cells; MIA PaCa-2, 144 h, Day 6, read-out: growth inhibitory concentration (gIC50)) was 6.57 and the pIC50 (MiaPaca-2 cells; MIA PaCa-2, 312 h, Day 13, read-out: growth inhibitory concentration (gIC50)) was 6.03. It also gave a pIC50 (Panc-1 cells; 96 h, Day 4, read-out: growth inhibitory concentration (gIC50)) of 5.70, a pIC50 (Panc-1 cells; 144 h, Day 6, read-out: growth inhibitory concentration (gIC50)) of 5.91 and a pIC50 (Panc-1 cells; 312 h, Day 13, read-out: growth inhibitory concentration (gIC50)) of 5.41. The “effect on pancreatic cancer cell morphology / growth” value (Miapaca-2) was “inhibition of cancer cell growth” and the “effect on pancreatic cancer cell morphology / growth” value (Panc-1) was “inhibition of cancer cell growth”.

In the case of `CC(=O)N1CCC(Nc2cc(C(=O)NC[C@H](O)CN3CCc4ccccc4C3)ncn2)CC1` [Formula A], the pIC50 (Z-138) was 8.24, the pIC50 (Granta-519) was 8.33 and the pIC50 (Jeko-1) was 7.95. The pIC50 (Maver-1) was 7.49, the pIC50 (Mino) was 6.97 and the pIC50 [1] was 8.70. For the same molecule, the pIC50 [2] was 8.06, the pIC50 [3] was 9.52 and the pIC50 [4] was 8.15. For the same molecule, the pIC50 [5] was 7.85, the “cells stained positive for Annexin-V” value (Maver-1 cells) was 8% and the “increase in Annexin-V positive cells” value (Z-138 cells; after 4 days) was 12%. For the same molecule, the “increase in Annexin-V positive cells” value (Z-138 cells; after 6 days) was 40%, the “Tumor growth inhibition (TGI)” value (Z-138 xenograft model) was > 50% and the “Tumor growth inhibition (TGI)” value (Maver-1 xenograft model) was > 50%. The “body weight loss (BWL) exceeded by 4 animals” value ([6]; 100 mg/kg dose group) was > 15% and the “average body weight loss (BWL) in all groups” value ([6]; 21 days) was < 8%.
